Source: US11021457B2, “Class of isoindolone-imide ring-1,3-dione-2-ene compounds, composition and use thereof” (WIGEN BIOMEDICINE TECHNOLOGY (SHANGHAI) CO., LTD., priority 2017, dated 2021)

Tested on: K562
Test: Inhibition of tumor cell proliferation, CellTiter-Glo, K562
Format: cell-based
Settings: compound concentration 50 μM, 72 hours
Method in brief: (§1)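 Cells seeded at 2000-10000 per well, treated immediately (suspension) or after adherence (adherent) and cultured at 37° C, 5% CO2. Viability read by CellTiter-Glo at 72 h as blank-corrected survival rate vs control. Scored at 50 μM compound: survival 60-<90% +, >30-60% ++, ≤30% +++.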

SMILES | Inhibitory activity against proliferation (cell survival rate) K562
O=C1CCC(N2C(=O)c3cccc(NC=C4C(=O)CC(c5c(Br)ccc6[nH]cc(Cl)c56)CC4=O)c3C2=O)C(=O)N1 (stereo not shown) [Compound 13] | + (60≤survival rate (%)<90)
O=C1CCC(N2Cc3c(NC=C4C(=O)CC(c5c(Br)ccc6[nH]cc(Cl)c56)CC4=O)cccc3C2=O)C(=O)N1 (stereo not shown) [Compound 14] | + (60≤survival rate (%)<90)
O=C1CCC(N2Cc3c(NC=C4C(=O)CC(c5cccc6[nH]cc(C(F)(F)F)c56)CC4=O)cccc3C2=O)C(=O)N1 (stereo not shown) [Compound 15] | + (60≤survival rate (%)<90)
O=C1CCC(N2Cc3c(NC=C4C(=O)CC(c5c(Br)ccc6[nH]cc(C(F)(F)F)c56)CC4=O)cccc3C2=O)C(=O)N1 (stereo not shown) [Compound 16] | + (60≤survival rate (%)<90)
CC(C)[C@H](NC(=O)CN1CCN(CCNC=C2C(=O)CC(c3ccccc3)CC2=O)CC1)C(=O)N[C@@H](CCCNC(N)=O)C(=O)Nc1cccc2c1CN(C1CCC(=O)NC1=O)C2=O (stereo partly shown) [Compound 60] | + (60≤survival rate (%)<90)
O=C1CCC(N2C(=O)c3cccc(NC(=O)[C@@H]4C[C@H](O)CN4CCNC=C4C(=O)CC(c5ccccc5)CC4=O)c3C2=O)C(=O)N1 (stereo partly shown) [Compound 64] | +++ (survival rate (%)≤30)
CC(Nc1cccc2c1C(=O)N(C1CCC(=O)NC1=O)C2=O)=C1C(=O)CC(c2ccccc2)CC1=O (stereo not shown) [Compound 76] | +++ (survival rate (%)≤30)

Tested on: MDA-MB-453
Test: Inhibition of tumor cell proliferation, CellTiter-Glo, MDA-MB-453
Format: cell-based
Settings: compound concentration 50 μM, 72 hours
Method in brief: as §1

SMILES | Inhibitory activity against proliferation (cell survival rate) MDA-MB-453
O=C1CCC(N2C(=O)c3cccc(NC=C4C(=O)CC(c5c(Br)ccc6[nH]cc(Cl)c56)CC4=O)c3C2=O)C(=O)N1 (stereo not shown) [Compound 13] | +++ (survival rate (%)≤30)
O=C1CCC(N2Cc3c(NC=C4C(=O)CC(c5c(Br)ccc6[nH]cc(Cl)c56)CC4=O)cccc3C2=O)C(=O)N1 (stereo not shown) [Compound 14] | +++ (survival rate (%)≤30)
O=C1CCC(N2Cc3c(NC=C4C(=O)CC(c5cccc6[nH]cc(C(F)(F)F)c56)CC4=O)cccc3C2=O)C(=O)N1 (stereo not shown) [Compound 15] | + (60≤survival rate (%)<90)
O=C1CCC(N2Cc3c(NC=C4C(=O)CC(c5c(Br)ccc6[nH]cc(C(F)(F)F)c56)CC4=O)cccc3C2=O)C(=O)N1 (stereo not shown) [Compound 16] | + (60≤survival rate (%)<90)
O=C1CCC(N2C(=O)c3cccc(NC(=O)CNC=C4C(=O)CC(c5ccccc5)CC4=O)c3C2=O)C(=O)N1 (stereo not shown) [Compound 49] | ++ (30<survival rate (%)≤60)
CC(C)[C@H](NC(=O)CN1CCN(CCNC=C2C(=O)CC(c3ccccc3)CC2=O)CC1)C(=O)N[C@@H](CCCNC(N)=O)C(=O)Nc1cccc2c1CN(C1CCC(=O)NC1=O)C2=O (stereo partly shown) [Compound 60] | + (60≤survival rate (%)<90)
O=C1CCC(N2C(=O)c3cccc(NC(=O)[C@@H]4C[C@H](O)CN4CCNC=C4C(=O)CC(c5ccccc5)CC4=O)c3C2=O)C(=O)N1 (stereo partly shown) [Compound 64] | +++ (survival rate (%)≤30)

Tested on: SU-DHL6
Test: Inhibition of tumor cell proliferation, CellTiter-Glo, SU-DHL6
Format: cell-based
Settings: compound concentration 50 μM, 72 hours
Method in brief: as §1

SMILES | Inhibitory activity against proliferation (cell survival rate) SU-DHL6
O=C1CCC(N2C(=O)c3cccc(NC=C4C(=O)CC(c5c(Br)ccc6[nH]cc(Cl)c56)CC4=O)c3C2=O)C(=O)N1 (stereo not shown) [Compound 13] | ++ (30<survival rate (%)≤60)
O=C1CCC(N2Cc3c(NC=C4C(=O)CC(c5c(Br)ccc6[nH]cc(Cl)c56)CC4=O)cccc3C2=O)C(=O)N1 (stereo not shown) [Compound 14] | ++ (30<survival rate (%)≤60)
O=C1CCC(N2Cc3c(NC=C4C(=O)CC(c5cccc6[nH]cc(C(F)(F)F)c56)CC4=O)cccc3C2=O)C(=O)N1 (stereo not shown) [Compound 15] | ++ (30<survival rate (%)≤60)
O=C1CCC(N2Cc3c(NC=C4C(=O)CC(c5c(Br)ccc6[nH]cc(C(F)(F)F)c56)CC4=O)cccc3C2=O)C(=O)N1 (stereo not shown) [Compound 16] | + (60≤survival rate (%)<90)
O=C1CCC(N2C(=O)c3cccc(NC(=O)CNC=C4C(=O)CC(c5ccccc5)CC4=O)c3C2=O)C(=O)N1 (stereo not shown) [Compound 49] | ++ (30<survival rate (%)≤60)
CC(C)[C@H](NC(=O)CN1CCN(CCNC=C2C(=O)CC(c3ccccc3)CC2=O)CC1)C(=O)N[C@@H](CCCNC(N)=O)C(=O)Nc1cccc2c1CN(C1CCC(=O)NC1=O)C2=O (stereo partly shown) [Compound 60] | ++ (30<survival rate (%)≤60)
O=C1CCC(N2C(=O)c3cccc(NC(=O)[C@@H]4C[C@H](O)CN4CCNC=C4C(=O)CC(c5ccccc5)CC4=O)c3C2=O)C(=O)N1 (stereo partly shown) [Compound 64] | +++ (survival rate (%)≤30)
CC(Nc1cccc2c1C(=O)N(C1CCC(=O)NC1=O)C2=O)=C1C(=O)CC(c2ccccc2)CC1=O (stereo not shown) [Compound 76] | +++ (survival rate (%)≤30)

Target: LC3B (Homo sapiens (Human), UniProt Q9GZQ8)
Test: Fluorescence polarization experiment targeting LC3B (GST-LC3B with FITC-labeled peptide)
Settings: GST-LC3B 180 nM, FITC-labeled peptide 18 nM, 25° C.

SMILES | IC50 [µM]
O=C1CCC(N2C(=O)c3cccc(NC=C4C(=O)CC(c5c(Br)ccc6[nH]cc(Cl)c56)CC4=O)c3C2=O)C(=O)N1 (stereo not shown) [Compound 13] | < 3
O=C1CCC(N2Cc3c(NC=C4C(=O)CC(c5c(Br)ccc6[nH]cc(Cl)c56)CC4=O)cccc3C2=O)C(=O)N1 (stereo not shown) [Compound 14] | < 3
O=C1CCC(N2Cc3c(NC=C4C(=O)CC(c5cccc6[nH]cc(C(F)(F)F)c56)CC4=O)cccc3C2=O)C(=O)N1 (stereo not shown) [Compound 15] | < 3
O=C1CCC(N2Cc3c(NC=C4C(=O)CC(c5c(Br)ccc6[nH]cc(C(F)(F)F)c56)CC4=O)cccc3C2=O)C(=O)N1 (stereo not shown) [Compound 16] | < 3
O=C1CCC(N2C(=O)c3cccc(NC(=O)CNC=C4C(=O)CC(c5ccccc5)CC4=O)c3C2=O)C(=O)N1 (stereo not shown) [Compound 49] | 100 to 1000
CC(C)[C@H](NC(=O)CN1CCN(CCNC=C2C(=O)CC(c3ccccc3)CC2=O)CC1)C(=O)N[C@@H](CCCNC(N)=O)C(=O)Nc1cccc2c1CN(C1CCC(=O)NC1=O)C2=O (stereo partly shown) [Compound 60] | 15 to 100
O=C1CCC(N2C(=O)c3cccc(NC(=O)[C@@H]4C[C@H](O)CN4CCNC=C4C(=O)CC(c5ccccc5)CC4=O)c3C2=O)C(=O)N1 (stereo partly shown) [Compound 64] | 15 to 100
CC(Nc1cccc2c1C(=O)N(C1CCC(=O)NC1=O)C2=O)=C1C(=O)CC(c2ccccc2)CC1=O (stereo not shown) [Compound 76] | 100 to 1000

Tested on: A549
Test: Inhibition of tumor cell proliferation, CellTiter-Glo, A549
Format: cell-based
Settings: compound concentration 50 μM, 72 hours
Method in brief: as §1

SMILES | Inhibitory activity against proliferation (cell survival rate) A549
O=C1CCC(N2C(=O)c3cccc(NC=C4C(=O)CC(c5c(Br)ccc6[nH]cc(Cl)c56)CC4=O)c3C2=O)C(=O)N1 (stereo not shown) [Compound 13] | +++ (survival rate (%)≤30)
O=C1CCC(N2Cc3c(NC=C4C(=O)CC(c5c(Br)ccc6[nH]cc(Cl)c56)CC4=O)cccc3C2=O)C(=O)N1 (stereo not shown) [Compound 14] | +++ (survival rate (%)≤30)
O=C1CCC(N2Cc3c(NC=C4C(=O)CC(c5cccc6[nH]cc(C(F)(F)F)c56)CC4=O)cccc3C2=O)C(=O)N1 (stereo not shown) [Compound 15] | + (60≤survival rate (%)<90)
O=C1CCC(N2Cc3c(NC=C4C(=O)CC(c5c(Br)ccc6[nH]cc(C(F)(F)F)c56)CC4=O)cccc3C2=O)C(=O)N1 (stereo not shown) [Compound 16] | + (60≤survival rate (%)<90)
O=C1CCC(N2C(=O)c3cccc(NC(=O)CNC=C4C(=O)CC(c5ccccc5)CC4=O)c3C2=O)C(=O)N1 (stereo not shown) [Compound 49] | ++ (30<survival rate (%)≤60)
CC(Nc1cccc2c1C(=O)N(C1CCC(=O)NC1=O)C2=O)=C1C(=O)CC(c2ccccc2)CC1=O (stereo not shown) [Compound 76] | +++ (survival rate (%)≤30)

Tested on: RPMI-8226
Test: Inhibition of tumor cell proliferation, CellTiter-Glo, RPMI-8226
Format: cell-based
Settings: compound concentration 50 μM, 72 hours
Method in brief: as §1

SMILES | Inhibitory activity against proliferation (cell survival rate) RPMI-8226
O=C1CCC(N2C(=O)c3cccc(NC=C4C(=O)CC(c5c(Br)ccc6[nH]cc(Cl)c56)CC4=O)c3C2=O)C(=O)N1 (stereo not shown) [Compound 13] | + (60≤survival rate (%)<90)
O=C1CCC(N2Cc3c(NC=C4C(=O)CC(c5c(Br)ccc6[nH]cc(Cl)c56)CC4=O)cccc3C2=O)C(=O)N1 (stereo not shown) [Compound 14] | + (60≤survival rate (%)<90)
O=C1CCC(N2Cc3c(NC=C4C(=O)CC(c5cccc6[nH]cc(C(F)(F)F)c56)CC4=O)cccc3C2=O)C(=O)N1 (stereo not shown) [Compound 15] | +++ (survival rate (%)≤30)
O=C1CCC(N2Cc3c(NC=C4C(=O)CC(c5c(Br)ccc6[nH]cc(C(F)(F)F)c56)CC4=O)cccc3C2=O)C(=O)N1 (stereo not shown) [Compound 16] | +++ (survival rate (%)≤30)
O=C1CCC(N2C(=O)c3cccc(NC(=O)CNC=C4C(=O)CC(c5ccccc5)CC4=O)c3C2=O)C(=O)N1 (stereo not shown) [Compound 49] | ++ (30<survival rate (%)≤60)
CC(C)[C@H](NC(=O)CN1CCN(CCNC=C2C(=O)CC(c3ccccc3)CC2=O)CC1)C(=O)N[C@@H](CCCNC(N)=O)C(=O)Nc1cccc2c1CN(C1CCC(=O)NC1=O)C2=O (stereo partly shown) [Compound 60] | +++ (survival rate (%)≤30)
O=C1CCC(N2C(=O)c3cccc(NC(=O)[C@@H]4C[C@H](O)CN4CCNC=C4C(=O)CC(c5ccccc5)CC4=O)c3C2=O)C(=O)N1 (stereo partly shown) [Compound 64] | ++ (30<survival rate (%)≤60)
CC(Nc1cccc2c1C(=O)N(C1CCC(=O)NC1=O)C2=O)=C1C(=O)CC(c2ccccc2)CC1=O (stereo not shown) [Compound 76] | +++ (survival rate (%)≤30)

Tested on: BxPC-3
Test: Inhibition of tumor cell proliferation, CellTiter-Glo, BxPC-3
Format: cell-based
Settings: compound concentration 50 μM, 72 hours
Method in brief: as §1

SMILES | Inhibitory activity against proliferation (cell survival rate) BxPC-3
O=C1CCC(N2C(=O)c3cccc(NC=C4C(=O)CC(c5c(Br)ccc6[nH]cc(Cl)c56)CC4=O)c3C2=O)C(=O)N1 (stereo not shown) [Compound 13] | ++ (30<survival rate (%)≤60)
O=C1CCC(N2Cc3c(NC=C4C(=O)CC(c5c(Br)ccc6[nH]cc(Cl)c56)CC4=O)cccc3C2=O)C(=O)N1 (stereo not shown) [Compound 14] | + (60≤survival rate (%)<90)
O=C1CCC(N2Cc3c(NC=C4C(=O)CC(c5cccc6[nH]cc(C(F)(F)F)c56)CC4=O)cccc3C2=O)C(=O)N1 (stereo not shown) [Compound 15] | ++ (30<survival rate (%)≤60)
O=C1CCC(N2Cc3c(NC=C4C(=O)CC(c5c(Br)ccc6[nH]cc(C(F)(F)F)c56)CC4=O)cccc3C2=O)C(=O)N1 (stereo not shown) [Compound 16] | + (60≤survival rate (%)<90)
O=C1CCC(N2C(=O)c3cccc(NC(=O)CNC=C4C(=O)CC(c5ccccc5)CC4=O)c3C2=O)C(=O)N1 (stereo not shown) [Compound 49] | + (60≤survival rate (%)<90)
CC(C)[C@H](NC(=O)CN1CCN(CCNC=C2C(=O)CC(c3ccccc3)CC2=O)CC1)C(=O)N[C@@H](CCCNC(N)=O)C(=O)Nc1cccc2c1CN(C1CCC(=O)NC1=O)C2=O (stereo partly shown) [Compound 60] | ++ (30<survival rate (%)≤60)
O=C1CCC(N2C(=O)c3cccc(NC(=O)[C@@H]4C[C@H](O)CN4CCNC=C4C(=O)CC(c5ccccc5)CC4=O)c3C2=O)C(=O)N1 (stereo partly shown) [Compound 64] | + (60≤survival rate (%)<90)
CC(Nc1cccc2c1C(=O)N(C1CCC(=O)NC1=O)C2=O)=C1C(=O)CC(c2ccccc2)CC1=O (stereo not shown) [Compound 76] | ++ (30<survival rate (%)≤60)
